What was measured:
Balb/c mice = assay: LPS induced endotoxemia in Balb/c mice, total nitrite in plasma; assay type: in vivo
Experimental: The HPLC purified lead compound was suspended in phosphate buffered saline (PBS) at a concentration of 20 mg/ml for in vivo experiment. Balb/c mice, 6 to 8 week of age, weighing 23-25 g, were housed in micro-barrier cages on sterile bedding and fed ad libitum water and food. The animals were divided into three groups containing 6 mice in each group. Four milligrams (160 mg/kg body weight) of the isolated lead compound was administered intra-peritoneally (i.p.) 2 hours prior to LPS challenge. After 2 hours 150 μg LPS was injected i.p., and the mice were kept for 8 hours. In negative control mice, PBS was injected whereas, only LPS injected mice were used as positive control. After 8 hours of LPS injection, the blood was collected in ACD buffer from each mouse by retro-orbital puncture. The blood samples were immediately centrifuged and the plasma samples were collected and stored at −20° C. till nitrite assay. The plasma samples were then diluted 1:1 using 1× reaction buffer (total nitrite estimation kit, R & D systems, USA) and protein from the plasma was removed using 10 kDa centricon (Centricon, USA). Then protein free plasma samples were used for total nitrite estimation (NO^2−+NO^3−) using the same kit.
The Balb/c mice were used to validate the in vivo effect of the active compound on endotoxin induced inflammation by LPS. Balb/c mice, 6 to 8 week of age, weighing 23-25 g, were housed in micro-barrier cages on sterile bedding and fed ad libitum water and food. The animals were divided into three groups containing 6 mice in each group. Four milligrams (160 mg/kg body weight) of the active compound was preinjected intra-peritonially (i.p.) into the mice for two hours and then LPS (150 μg) was injected i.p. and left for eight hours. […] The plasma from the blood samples were collected by centrifuging at […] for 10 minutes and stored at −80° C. till nitric oxide was analyzed using Griess nitrite assay. The total nitrite in the plasma samples were detected using nitric oxide (NO^2−/NO^3−) assay kit (R & D systems, USA). […]

inos gene = assay: RT-PCR analysis for inos gene expression; assay type: cell-based, murine
Experimental: The murine macrophage cells were preincubated with the test extract, ethyl ether fraction and the compound for 2 hours (as mentioned above), washed and then challenged with LPS for 4 hours. After the incubation period the cells were washed with phosphate buffered saline (PBS), scraped and then pelleted by centrifugation. The total RNA from the pelleted cells was isolated using EZ-RNA isolation kit (Biological industries) using vendor recommended protocol. Then, cDNA was prepared from the total RNA using single strand cDNA synthesis kit (Clontech, USA) and the expression of inos gene was estimated using gene specific primers for inos gene.
The murine macrophage cells (J774) were challenged with LPS at a concentration of 1 μg/ml with and without the four test fractions obtained in Example III for 4 hours at 37° C. in the humidified incubator with 5% CO2. The cells were harvested and were used to isolate the total RNA using (RNA isolation kit, Qiagen). The RNA was quantified spectrophotometrically and 2 μg of total RNA from each sample was used for cDNA synthesis (cDNA synthesis kit, Clontech). Gene specific PCR for the inducible nitric oxide synthase (inos) and glyceraldehyde-3-phosphatedehyrogenase (G3PDH) as house keeping gene was performed. Primer sequences were designed from cDNA sequences of the specific gene (www:ncbi.nlm.nih.gov/locuslink) using DNASTAR software. […]

[1] = system: nitric oxide production in murine macrophage cells (J774); assay: Nitric oxide assay using Griess nitrite assay in LPS-challenged macrophages; assay type: cell-based
Experimental: Murine macrophage cell line (J-774) was used to check the anti-inflammatory effects of the extract, sub-fractions and the isolated active compounds. The macrophages are cultured in Dulbeccos Modified Eagles Medium (DMEM) supplemented with antibiotic and antimycotic solution and 10% fetal calf serum at 37° C. in a CO2 incubator (5%). The cell viability was measured using the Trypan blue exclusion method. For inducing the inflammatory conditions the cell were stimulated with LPS (1 μg/ml) and the effect of the compounds on the inflammatory condition was assessed by measuring the inflammatory mediator, nitric oxide and the respective inos gene expression by the murine macrophages.
The murine macrophage cells release nitric oxide along with other pro-inflammatory molecules, when stimulated with LPS. The cells were preincubated with the crude extract (300 and 500 μg/ml), ethyl ether fraction (50, 100, 150 μg/ml), the isolated active compound (5, 10, 20 μg/ml) and rutin (20, 40, 80 μM) for 2 hours and then challenged with LPS (1 μg/ml) for 16 hours. After 16 hours the cell supernatant was used to measure the nitric oxide production as nitrite using Griess nitrite assay (Lee et al., 2003, Life Science 73, 1401-1412). Equal amount of cell supernatant was incubated with Griess reagent for 10 minutes at room temperature and the magenta color developed was measured using spectrophotometer.
Each of the four fractions obtained in Example III were then used in different concentrations (50 μg/ml, 100 µg/ml and 150 μg/ml) for their effect on nitric oxide inhibition in vitro. Murine macrophages (J774) were maintained in DMEM medium, 37° C. in CO2 incubator (5% CO2). The cells were harvested and challenged with LPS (Sigma) at a concentration of 1 μg/ml with and without the four test fractions obtained in Example III for 16 hours at 37° C. in the humidified incubator with 5% CO2. After 16 hours the cell free supernatant was collected and the nitric oxide production was measured as described by Lee et al. Briefly 100 μl of supernatant samples were incubated for 10 min at room temperature with an equal volume of Griess reagent (0.1% naphthalene diamine dihydrochloride, 1% sulfanilamide in 5% H2SO4) in microtitre plate. The absorbance at 550 nm was measured. Sodium nitrite was used as the standard.

[2] = system: murine macrophage cells (J774); assay: Cytotoxicity assay using MTT; assay type: cell-based; settings: for Cell viability (%): J774, MTT
Experimental: The murine macrophage cells were plated in cell culture plates and then treated with or without the crude extract/ethyl ether fraction/purified compound. The cells were then washed and challenged with LPS (1 μg/ml) for 16 hours. The MTT (5 mg/ml in PBS) was then added and the cells were further incubated for 4 hours at 37° C. in CO2 incubator. MTT solubilization buffer was then added and absorbance at 590 nm was determined.

## C=CC(C)(C)c1cc2cc(O)ccc2oc1=O [Rg-001, 3-(1,1-dimethyl-allyl)-6-hydroxy-chromen-2-one]
Balb/c mice; 160 mg/kg body weight i.p. 2 hours prior to LPS (150 μg), blood after 8 hours
  inhibition of total nitrite in the plasma samples: > 75%
Balb/c mice; 160 mg/kg i.p., 8 hours after LPS, compared to the LPS challenged mice
  behavioral condition of treated mice: normal behavioral condition
Balb/c mice; effective dose of 40 mg/kg to 160 mg/kg body weight
  in-vivo inflammation (NO inhibition): 60% to 80
Inos gene
  inhibition of inos gene: 70%
Inos gene; J774, LPS challenge
  effect on inos gene expression: inhibit the gene expression significantly
[1]; 5 μg (21.74 μM), J774, LPS 1 μg/ml 16 h, 21.74 µM
  Nitric oxide inhibition (%): 25.4%
[1]; 20 μg (87 μM), J774, LPS 1 μg/ml 16 h, 87 µM
  Nitric oxide inhibition (%): 63.5%
[1]; 5, 10 and 20 μg/ml, J774, LPS
  inhibition of nitric oxide production: significant inhibition
[1]; Mus musculus, J774, 16 h, 5 μg (21.74 μM), J774, LPS 1 μg/ml 16 h
  inhibition at 21.74 µM: 25%
[1]; Mus musculus, J774, 16 h, 10 μg (43.5 μM), J774, LPS 1 μg/ml 16 h
  inhibition at 43.5 µM: 40%
[1]; Mus musculus, J774, 16 h, 20 μg (87 μM), J774, LPS 1 μg/ml 16 h
  inhibition at 87 µM: 70%
[2]; 5 μg (21.74 μM)
  Cell viability (%): >85%
[2]; 10 μg (43.5 μM)
  Cell viability (%): >85%
[2]; 20 μg (87 μM)
  Cell viability (%): >85%
[2]; 20 μg (87 μM), listed as 3-(1,1-dimethyl-allyl)-6-hydroxy-chromen-2-one
  Cell viability (%): > 85%
[2]; all the doses ranging from 20 to 100 μg/ml
  cell viability: > 85%
[2]; highest concentration 50 μg i.e. 217.5 μM, MTT
  viability of macrophage cells: > 85%

## C[C@@H]1O[C@@H](OC[C@H]2O[C@@H](Oc3c(-c4ccc(O)c(O)c4)oc4cc(O)cc(O)c4c3=O)[C@H](O)[C@@H](O)[C@@H]2O)[C@H](O)[C@H](O)[C@H]1O [Rutin, reference compound]
[1]; Mus musculus, J774, 16 h, 12.2 μg (20 μM), J774, LPS 1 μg/ml 16 h
  inhibition at 20 µM: 11%
[1]; Mus musculus, J774, 16 h, 24.4 μg (40 μM), J774, LPS 1 μg/ml 16 h
  inhibition at 40 µM: 20.6%
[1]; Mus musculus, J774, 16 h, 48.8 μg (80 μM), J774, LPS 1 μg/ml 16 h
  inhibition at 80 µM: 27%
[2]; 12.2 μg (20 μM)
  Cell viability (%): >85%
[2]; 24.4 μg (40 μM)
  Cell viability (%): >85%
[2]; 48.8 μg (80 μM)
  Cell viability (%): ≦75%
